Assay results as given in publication PMC5572697, “A first-in-human study of the novel HIV-fusion inhibitor C34-PEG4-Chol” (Scientific Reports, 2017).
Entries after “also recorded” stand apart in the source; their conditions may differ.

Tests used:
in vivo = details: mouse, C57BL/6 mice; for AUC(0-inf): plasma LC-MS, mean of three animals per point
Method: C34-PEG4-Chol first in man – Supplementary Information
Supplementary Information 2:
Preclinical Pharmacokinetics of C34-PEG4-Chol […]
C34-PEG4-Chol was formulated in 10 mM phosphate buffered saline (pH 7.2). The concentration of C34-PEG4-Chol in plasma samples was determined by LC-MS as previously […]
The PK of C34-PEG4-Chol in C57BL/6 mice following intravenous (IV) and subcutaneous (SC) dosing is shown in […]
Figure S2: Pharmacokinetics of C34-PEG4-Chol in mice. 3.5 mg/kg or 1.0 mg/kg (SC and IV, respectively) of C34-PEG4-Chol in 10mM phosphate buffered saline (PBS) were administered to C57BL/6 mice: volume of administration 5 mL/kg and 2 mL/kg for SC and IV administration, respectively. The concentration of the dosing solution was determined immediately after dosing with the same analytical method utilized to monitor peptide plasma concentration with time, and the analytical curves were adjusted accordingly (SC dose 0.56 mg/mL, theor.
0.5 mg/mL; IV dose 0.62 mg/mL, theor. 0.7 mg/mL). Each data point is the mean of three animals.
(1 picture or pasted object on this page, not shown here) […]

dogs = test: Repeat-dose toxicity study in dogs; assay type: in vivo; details: subcutaneous
Method: (§1) Pre-clinical toxicology studies were conducted in 2 species (rodent/mice and non-rodent/dogs). Multiple high doses of C34-PEG4-Chol, up to 12 mg/kg or 10 x the maximum proposed human dose, were administered daily in mice and twice weekly (the intended frequency in humans) in dogs for 14 days, with a 7-day recovery period for both species. […] Toxicology results were analysed independently by the Medicines and Healthcare Regulatory Authority (MHRA), UK before a decision was made to proceed with trial in humans.
(§2) Repeat-dose toxicity studies were conducted in mice (n = 20 at 6 mg/kg/day, n = 20 at 12 mg/kg/day) and dogs (n = 6 at 6 mg/kg/day, n = 6 at 12 mg/kg/day). The subcutaneous route of administration was selected for both species. The highest dose of 12 mg/kg/day was based on the maximal achievable dose with the formulation, and corresponded to 10x the maximum proposed human dose (80 mg, 1.15 mg/kg). No premature decedents occurred in either species. Following observation, animals were euthanised.

[1] = Repeat-dose toxicity study in mice; assay type: in vivo; details: mouse, in vivo, sc, subcutaneous, daily for 14 days, 7-day recovery, read-out: No-observed-adverse-effect-level (NOAEL)
Method: as §1, §2

mice = test: Repeat-dose toxicity study in mice; assay type: in vivo; details: subcutaneous
Method: as §1, §2

[2] = Human plasma pharmacokinetics after a single subcutaneous dose; assay type: in vivo; set-up: Area under plasma-concentration-time-curve: unit not given here; details: for half-life / Cmax / Tmax / Vd: sc; for Cmax: LC-MS/MS, non-compartmental, read-out: Maximum observed concentration; for Tmax: read-out: Time to maximum observed concentration; for Vd: read-out: Volume of distribution; for Time-to-MEC (time plasma concentrations remained above the minimum effective concentration): assay cut-off 62.5 ng/mL used as surrogate
Method: Intensive pharmacokinetic sampling was performed over the first 24 hours subsequent to dosing with samples collected pre-dose, 0.5 h, 1 h, 2 h, 4 h, 6 h, 8 h, 12 h, 24 h. Thereafter pharmacokinetic sampling was undertaken on days 2, 3, 4, 7, 10, 14, 21 and 28. Plasma samples (100 µL) were extracted in 300 µL of acetonitrile containing 1% formic acid; vortexed and centrifuged at 4000 rpm for 10 minutes. The supernatant was transferred into autosampler vials, and 25 μL injected onto the LC-MS/MS. Quantitative analysis of C34-PEG4-Chol was performed by LC-MS/MS using a Thermo Quantum Access triple quadrupole mass spectrometer, interfaced with a heated electrospray ionisation (H-ESI) source (Thermo Fisher Scientific, Hemel Hempstead, UK). The HPLC system included a variable loop Accela autosampler and an Accela pump (ThermoScientific, Hemel Hempstead, UK). Chromatographic separation was achieved using a reverse-phase XBridge Peptide BEH C18 column (3.5 µm; 50 mm × 2.1 mm) (Waters Corporation, Milford, US) interfaced with a 2 µm C18 Quest column saver (Thermo Scientific, Hemel Hempstead, UK). The gradient mobile phase, consisting of a solvent A (0.1% formic acid in Water) and solvent B (0.1% formic acid in acetonitrile), was delivered at a flow rate of […]. Detection of C34-PEG4-Chol was performed in the pseudo Selected Reaction Monitoring mode, monitoring a triple charged molecular ion [M + 3 H]3 + at m/z 1756.8. The internal standard (quinoxaline), was monitored at m/z 313.1 → 246.1. Peak area ratios of compound to internal standard were utilized to construct a calibration curve with a weighting of 1/x2. Data acquisition and processing was performed using LCQuan software (Version 2.7, Thermo Scientific, Hemel Hempstead, UK). The assay calibration range was between 62.5–10,000 ng/mL; inter and intra-assay accuracy and precision at the assay limit of quantification (LLQ) fell within the designated ±20% of the nominal value, and were within ±15% for all QC levels.
Pharmacokinetic parameters were derived via non-compartmental modeling. The area-under-the-concentration-time-curve (AUC) was calculated following a single dose, assuming linear decrease over time, by linear trapezoidal method. The maximum concentration (Cmax) observed at each dose and the time-to-Cmax (Tmax) were calculated. The time to reach minimum effective concentration was assessed in order to determine the frequency of future dosing regimens. […] Given our assay cut-off was 62.5 ng/mL, our assay cut off was used as a surrogate for the IC90.

[3] = human, in vivo, 10 mg, participant 1, single SC 10 mg
[4] = human, in vivo, 10 mg, participant 3, single SC 10 mg
[5] = human, in vivo, 20 mg, participant 5, single SC 20 mg

CC[C@H](C)[C@H](NC(=O)[C@H](CC(C)C)NC(=O)[C@H](CO)NC(=O)[C@H](Cc1c[nH]cn1)NC(=O)[C@@H](NC(=O)[C@H](CC(C)C)NC(=O)[C@H](CO)NC(=O)[C@@H](NC(=O)[C@H](Cc1ccc(O)cc1)NC(=O)[C@H](CC(N)=O)NC(=O)[C@H](CC(N)=O)NC(=O)[C@@H](NC(=O)[C@H](CCC(=O)O)NC(=O)[C@H](CCCNC(=N)N)NC(=O)[C@H](CC(=O)O)NC(=O)[C@H](Cc1c[nH]c2ccccc12)NC(=O)[C@H](CCC(=O)O)NC(=O)[C@H](CCSC)NC(=O)[C@H](Cc1c[nH]c2ccccc12)NC(C)=O)[C@@H](C)CC)[C@@H](C)O)[C@@H](C)CC)C(=O)N[C@@H](CCC(=O)O)C(=O)N[C@@H](CCC(=O)O)C(=O)N[C@@H](CO)C(=O)N[C@@H](CCC(N)=O)C(=O)N[C@@H](CC(N)=O)C(=O)N[C@@H](CCC(N)=O)C(=O)N[C@@H](CCC(N)=O)C(=O)N[C@@H](CCC(=O)O)C(=O)N[C@@H](CCCCN)C(=O)N[C@@H](CC(N)=O)C(=O)N[C@@H](CCC(=O)O)C(=O)N[C@@H](CCC(N)=O)C(=O)N[C@@H](CCC(=O)O)C(=O)N[C@@H](CC(C)C)C(=O)N[C@@H](CC(C)C)C(=O)NCC(=O)N[C@@H](CO)C(=O)NCC(=O)N[C@@H](CSCC(=O)NCCOCCOCCOCCOCCC(=O)O[C@H]1CC[C@@]2(C)C(=CC[C@H]3[C@@H]4CC[C@H]([C@H](C)CCCC(C)C)[C@@]4(C)CC[C@@H]32)C1)C(N)=O [C34-PEG4-Chol]
clearance (in vivo; IV 1.0 mg/kg): 0.29 mL/min/kg
AUC(0-inf) (in vivo; IV 1.0 mg/kg in 10 mM PBS): 10.8 µM·h
Vd (in vivo; IV 1.0 mg/kg, read-out: Vdss): 0.05 L/kg
half-life (in vivo; IV 1.0 mg/kg, read-out: t½ (converted)): 1.97 h
Cmax (in vivo; SC 3.5 mg/kg): 1120 nM
Tmax (in vivo; SC 3.5 mg/kg): 5.3 h
bioavailability (in vivo; SC 3.5 mg/kg): 30.3%
AUC(0-inf) (in vivo; SC 3.5 mg/kg in 10 mM PBS): 11.5 µM·h
Tolerability (dogs; 6 and 12 mg/kg, 14 days): well tolerated
Injection site findings (dogs; also seen in controls, greater severity with the peptide): some subcutaneous inflammation at the injection sites; also recorded: mild and reversible
NOAEL at 336 h [1]: 12 mg/kg/day
Injection site reactions (ISRs) (mice): had not been observed
Tolerability (mice; up to 12 mg/kg/day for 14 days): well tolerated
half-life [2, 3]: 48 h
Cmax ([2]; human, in vivo, 10 mg, participant 1, single SC 10 mg, plasma): 418 ng/mL
Tmax [2, 3]: 2 h
Vd [2, 3]: 24 L
half-life [2, 4]: 54 h
Cmax ([2]; human, in vivo, 10 mg, participant 3, single SC 10 mg, plasma): 278 ng/mL
Tmax [2, 4]: 6 h
Vd [2, 4]: 39.5 L
half-life [2, 5]: 46 h
Cmax ([2]; human, in vivo, 20 mg, participant 5, single SC 20 mg, plasma): 1030 ng/mL
Tmax [2, 5]: 2 h
Vd [2, 5]: 19.5 L
AUC ([2]; human, in vivo, participant 3, single SC 10 mg, linear trapezoidal, read-out: Area under plasma-concentration-time-curve): 200 ng·h/mL
level at 72 h ([2]; human, plasma, two subjects, single SC 10 mg, above the LLOQ, read-out: Plasma concentration at 72 hours): > 62 ng/mL
Area under plasma-concentration-time-curve ([2]; participant 5, single SC 20 mg, linear trapezoidal): 506
Time-to-MEC (time plasma concentrations remained above the minimum effective concentration) ([2]; single SC 10 mg): 72 h
Time-to-MEC (time plasma concentrations remained above the minimum effective concentration) ([2]; single SC 20 mg): 96 h
Half-life, range over the three participants ([2]; single SC 10, 10 and 20 mg): 46 to 54 h
